≈ marks a conversion by molar mass, not a printed value.
Key:
[1] = system: PAF-induced platelet aggregation; assay: Inhibitory effect on PAF-induced platelet aggregation in rabbits (in vitro test); format: cell-based; settings: Oryctolagus cuniculus, rabbit PRP, PAF 1.8×10^-7 M, 37° C., read-out: Inhibition of PAF-induced platelet aggregation, IC50
Experimental: Blood samples to which was added 0.1 volume of 3.8% sodium citrate were collected from rabbits. Platelet rich plasma (PRP) was prepared by centrifuging the blood sample at 200×g for 10 minutes, and platelet poor plasma (PPP) was prepared by centrifuging the remaining blood sample at 1000×g for 10 minutes.
(§1) Aggregation ability was measured with a turbidimetric device (6-channel NKK Hematracer 1, model PAT-6A) according to the method of G.V.R. Born described in J. Physiology, vol. 168, p. 178 (1963). The aggregometer was adjusted in sensitivity to give light transmission vaues of 0 and 100% for PRP and PPP, respectively. With stirring at 1000 rpm, 0.3 μl of test compound solution or vehicle was added to 0.3 ml of PRP. After the mixture was kept at 37° C. for 2 minutes, to the mixture was added 3 μl PAF (Serdary Research Lab.) at the final concentration of 1.8×10^-7 M and the light transmission was recorded for 5 minutes.
In all experiments, PAF was dissolved in ethanol at the concentration of 100 μg/ml, and, when used, diluted with 0.9% saline solution.
(§2) The inhibition percentage of test compounds on platelet aggregation were calculated from the following formula by measuring the maximal light transmission in the presence and absence of the test compounds. [formula]

platelet aggregation = assay: Inhibitory effect on platelet aggregation in rabbits (ex vivo test); set-up: species or system rabbit; settings: 3 animals
Experimental: as §1, §2
Test compound was orally administered to rabbit instead of adding it to PRP as in vitro test of Experiment 1, and then the citrated blood samples (9 volumes of blood+1 volume of 3.8% sodium citrate) were collected with the passage of time. Then, the blood samples were employed to determine the inhibitory effect at 1, 3, 6 and 24 hours after the administration of test compounds, respectively, according to Experiment 1.

PAF-induced lethal shock = assay: Effect on PAF-induced lethal shock in mice; format: in vivo, mice (male ICR); settings: 80 μg/kg PAF i.v., 24 hours
Experimental: The experiment was carried out according to the method of Young et al. described in Prostaglandins, vol. 30, p. […] Groups of 9 to 15 male ICR mice (Charles River) weighing 25-30 g were used. 80 μg/kg of PAF (Serdary Research Lab.) solution was intravenously administered in a lateral tail vein 1 hour after the oral administration of test compound (0.1 ml/10 g). […] Results were given as number of survivors/number of employed animals and survival rates (%) in Table 3.

PAF-induced foot edema = assay: Effect on PAF edema (PAF-induced foot edema in rats); format: in vivo, rats (male Donryu); settings: 1 hour after PAF 5 μg s.c.
Experimental: The experiment was carried out according to the method of Swingle et al. described in Agents and Actions, vol. 18, p. 359 (1986). Groups of five male Donryu rats weighing about 150 g were used. One hour after the oral administration of test compound (25 ml/kg), 5 μg/0.05 ml of PAF solution was subcutaneously injected to the paw of the right hind leg. The foot volume of the hind leg was measured 1 hour after the injection. The increasing ratios of foot volume before and after PAF injection were calculated.

benzodiazepine receptor = settings: well-known; cited from earlier work
central system = settings: U.S. Pat. No. 3,904,641; cited from earlier work
[2] = system: platelet-activating factor (PAF); settings: literature (Japan. J. Pharmacol. 1987; EP-A 194416); cited from earlier work
[3] = 3 mg/kg p.o., 1 hour after administration
[4] = 3 mg/kg p.o., 3 hours after administration
[5] = 3 mg/kg p.o., 6 hours after administration
[6] = 3 mg/kg p.o., 24 hours after administration

Cc1nnc2n1-c1sc(CCc3ccc(CC(C)C)cc3)cc1C(c1ccccc1Cl)=NC2 [Compound A, 4-(2-chlorophenyl)-2-[2-(4-isobutylphenyl)ethyl]-9-methyl-6H-thieno[3,2-f][1,2,4]triazolo[4,3-a][1,4]diazepine]
IC50 [1]: 0.003 to 0.01 µg/mL (≈ 0.00631 to 0.021 µM) | % of inhibition (platelet aggregation; [3]): 97±3% | % of inhibition (platelet aggregation; [4]): 100±0% | % of inhibition (platelet aggregation; [5]): 100±0% | % of inhibition (platelet aggregation; [6]): 100±0% | Survival rate (PAF-induced lethal shock; 3.0 mg/kg p.o.): 100.0% | number of survivors/number of employed animals (PAF-induced lethal shock; 3.0 mg/kg p.o.): 9/9 | Inhibition (foot edema) (PAF-induced foot edema; 0.3 mg/kg oral): 31% | Inhibition (foot edema) (PAF-induced foot edema; 1 mg/kg oral): 51% | Inhibition (foot edema) (PAF-induced foot edema; 3 mg/kg oral): 59%

CCCCc1ccc(CCc2cc3c(s2)-n2c(C)nnc2C(C)N=C3c2ccccc2Cl)cc1 (centres unmarked) [Compound L, 4-(2-chlorophenyl)-2-[2-(4-n-butylphenyl)ethyl]6,9-dimethyl-6H-thieno[3,2-f][1,2,4]triazolo[4,3-a][1,4]diazepine]
IC50 [1]: 0.01 to 0.03 µg/mL (≈ 0.0204 to 0.0613 µM)

Cc1nnc2n1-c1sc(CCc3ccc(-c4ccccc4)cc3)cc1C(c1ccccc1Cl)=NC2 [Compound F, 4-(2-chlorophenyl)-2-[2-(4-phenylphenyl)ethyl]-9-methyl-6H-thieno[3,2-f][1,2,4]triazolo[4,3-a][1,4]diazepine]
IC50 [1]: 0.01 to 0.03 µg/mL (≈ 0.0202 to 0.0606 µM)

Cc1nnc2n1-c1sc(CCc3ccccc3)cc1C(c1ccccc1Cl)=NC2 [Compound G, 4-(2-chlorophenyl)-2-(2-phenylethyl)-9-methyl-6H-thieno[3,2-f][1,2,4]triazolo[4,3-a][1,4]diazepine]
IC50 [1]: 0.03 to 0.1 µg/mL (≈ 0.0716 to 0.239 µM)

Cc1nnc2n1-c1sc(CCCc3ccc(CC(C)C)cc3)cc1C(c1ccccc1Cl)=NC2 [Compound I, 4-(2-chlorophenyl)-2-[3-(4-isobutylphenyl)propyl]9-methyl-6H-thieno[3,2-f][1,2,4]triazolo[4,3-a][1,4]diazepine]
IC50 [1]: 0.01 µg/mL (≈ 0.0204 µM)

CCc1cc2c(s1)-n1c(C)nnc1CN=C2c1ccccc1Cl [Etizolam, 6-(o-chlorophenyl)-8-ethyl-1-methyl-4H-s-triazolo[3,4-c]thieno[2,3-e][1,4]diazepine, reference compound]
IC50 [1]: 1.3 µg/mL (≈ 3.79 µM) | % of inhibition (platelet aggregation; 10 mg/kg p.o., printed once for the 1, 3, 6, 24 hours columns): no effect | Inhibition (foot edema) (PAF-induced foot edema; 10 mg/kg oral): 38% | Inhibition (foot edema) (PAF-induced foot edema; 25 mg/kg oral): 54% | affinity for the benzodiazepine receptor (benzodiazepine receptor): high affinity | pharmacological activities against the central nervous system (central system): antianxiety or anticonvulsant activities | antagonistic activity on PAF [2]: exhibits antagonistic activity

COc1ccc(CCc2cc3c(s2)-n2c(C)nnc2CN=C3c2ccccc2Cl)cc1 [Compound D, 4-(2-chlorophenyl)-2-[2-(4-methoxyphenyl)ethyl]-9-methyl-6H-thieno[3,2-f][1,2,4]triazolo[4,3-a][1,4]diazepine]
IC50 [1]: 0.01 to 0.03 µg/mL (≈ 0.0223 to 0.0668 µM)

Cc1nnc2n1-c1sc(CCc3ccc(CC(C)C)cc3)cc1C(c1ccccc1Cl)=NC2C (centres unmarked) [Compound K, 4-(2-chlorophenyl)-2-[2-(4-isobutylphenyl)ethyl]-6,9-dimethyl-6H-thieno[3,2-f][1,2,4]triazolo[4,3-a][1,4]diazepine]
IC50 [1]: 0.01 to 0.03 µg/mL (≈ 0.0204 to 0.0613 µM)

CCc1nnc2n1-c1sc(CCc3ccc(CC(C)C)cc3)cc1C(c1ccccc1Cl)=NC2 [Compound J, 4-(2-chlorophenyl)-9-ethyl-2-[2-(4-isobutylphenyl)ethyl]-6H-thieno[3,2-f][1,2,4]triazolo[4,3-a][1,4]diazepine]
IC50 [1]: 0.01 to 0.03 µg/mL (≈ 0.0204 to 0.0613 µM)

CCCCc1ccc(CCc2cc3c(s2)-n2c(C)nnc2CN=C3c2ccccc2Cl)cc1 [Compound E, 4-(2-chlorophenyl)-2-[2-(4-n-butylphenyl)ethyl]-9-methyl-6H-thieno[3,2-f][1,2,4]triazolo[4,3-a][1,4]diazepine]
IC50 [1]: 0.01 µg/mL (≈ 0.021 µM) | % of inhibition (platelet aggregation; [3]): 100±0% | % of inhibition (platelet aggregation; [4]): 100±0% | % of inhibition (platelet aggregation; [5]): 100±0% | % of inhibition (platelet aggregation; [6]): 94±6% | Survival rate (PAF-induced lethal shock; 1.0 mg/kg p.o.): 70.0% | number of survivors/number of employed animals (PAF-induced lethal shock; 1.0 mg/kg p.o.): 7/10 | Survival rate (PAF-induced lethal shock; 3.0 mg/kg p.o.): 100.0% | number of survivors/number of employed animals (PAF-induced lethal shock; 3.0 mg/kg p.o.): 10/10 | Inhibition (foot edema) (PAF-induced foot edema; 0.1 mg/kg oral): 55% | Inhibition (foot edema) (PAF-induced foot edema; 1 mg/kg oral): 78% | Inhibition (foot edema) (PAF-induced foot edema; 3 mg/kg oral): 75%

Cc1ccc(CCc2cc3c(s2)-n2c(C)nnc2CN=C3c2ccccc2Cl)cc1 [Compound B, 4-(2-chlorophenyl)-2-[2-(4-methylphenyl)ethyl]-9-methyl-6H-thieno[3,2-f][1,2,4]triazolo[4,3-a][1,4]diazepine]
IC50 [1]: 0.01 to 0.03 µg/mL (≈ 0.0231 to 0.0693 µM)

Cc1nnc2n1-c1sc(CCCCc3ccc(CC(C)C)cc3)cc1C(c1ccccc1Cl)=NC2 [Compound C, 4-(2-chlorophenyl)-2-[4-(4-isobutylphenyl)butyl]-9-methyl-6H-thieno[3,2-f][1,2,4]triazolo[4,3-a][1,4]diazepine]
IC50 [1]: 0.03 to 0.1 µg/mL (≈ 0.0596 to 0.199 µM) | Survival rate (PAF-induced lethal shock; 3.0 mg/kg p.o.): 100.0% | number of survivors/number of employed animals (PAF-induced lethal shock; 3.0 mg/kg p.o.): 9/9

Cc1nnc2n1-c1sc(Cc3ccc(CC(C)C)cc3)cc1C(c1ccccc1Cl)=NC2 [Compound H, 4-(2-chlorophenyl)-2-(4-isobutylbenzyl)-9-methyl-6H-thieno[3,2-f][1,2,4]triazolo[4,3-a][1,4]diazepine]
IC50 [1]: 0.003 to 0.01 µg/mL (≈ 0.00651 to 0.0217 µM)

From patent US4820703A, “PAF-antagonistic thienotriazolodiazepine compounds and pharmaceutical uses thereof” (Yoshitomi Pharmaceutical Industries Ltd., priority 1986, dated 1989)
